Counter-ions that a name gives are not always drawn.
Columns and labels:
[1] = test system: Scopolamine-induced memory deficiency; test: Test of scopolamine-induced memory deficiency (passive avoidance); assay type: in vivo; settings: rats
Source text: Test of Scopolamine-Induced Memory Deficiency:
Scopolamine has amnesiant properties in man and animals. Thus, its administration to a healthy person causes certain symptoms similar to what is observed in Alzheimer's disease. Scopolamine-induced memory deficiency is thus used as an experimental pharmacological model of this pathology. Scopolamine reduces the capacity for acquisition, memorization and recall in a test of passive avoidance in rats. […] The administration of scopolamine suppresses this reticence, and the test compounds counter the effect of scopolamine. The experimental protocol used is described in Psychopharmacol. 1992, 106, 26-30.

[2] = molecular target: T1, human alpha-2A adrenergic receptors (Homo sapiens, UniProt P08913); test: Measurement of the activation of the adrenergic alpha-2 receptors (GTPγS response on membrane preparations); assay type: biochemical; settings: GTPγS response versus maximum stimulation by (−)-adrenalin, negative = inverse agonist, read-out: Intrinsic activity % stimulated
T1 construct: host or cells: membrane preparations
T1 sequence (P08913 1-465): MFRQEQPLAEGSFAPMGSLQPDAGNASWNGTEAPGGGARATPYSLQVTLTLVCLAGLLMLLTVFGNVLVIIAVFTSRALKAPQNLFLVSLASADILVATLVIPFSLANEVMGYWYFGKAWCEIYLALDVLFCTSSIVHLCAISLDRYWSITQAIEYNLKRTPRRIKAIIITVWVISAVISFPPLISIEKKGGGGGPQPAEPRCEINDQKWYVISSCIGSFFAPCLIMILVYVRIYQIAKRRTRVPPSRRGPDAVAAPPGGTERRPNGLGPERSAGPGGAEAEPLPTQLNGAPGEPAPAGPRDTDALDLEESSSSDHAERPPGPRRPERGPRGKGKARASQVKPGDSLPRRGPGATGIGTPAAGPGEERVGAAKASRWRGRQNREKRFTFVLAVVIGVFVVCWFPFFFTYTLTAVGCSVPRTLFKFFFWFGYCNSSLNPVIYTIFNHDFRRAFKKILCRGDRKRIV
Experimental: Measurement of the Activation of the Adrenergic Alpha-2 Receptors:
The responses as GTPγS are performed on membrane preparations in 20 mM HEPES (pH=7.4) with 30 μM of GDP, 100 mM of NaCl, 3 mM of MgCl2 and 0.2 mM of ascorbic acid. The maximum stimulation of the GTPγS is determined in the presence of […] of (−)-adrenalin and calculated versus the basal GTPγS response. The results are expressed versus either adrenalin or RX 81105-9. Under these conditions, the compounds of the invention are distinguished from most of the compounds of the prior art of the 4,5-dihydro-1H-imidazole and/or 1H-imidazole type in that they behave rather as inverse agonists on human alpha-2A adrenergic receptors (cf. above table).

human alpha-2B receptor = molecular target: T2, human alpha-2B receptor (Homo sapiens, UniProt P18089); test: Binding to the adrenergic alpha-2B receptor, [3H]RX 821002, C6 cell membranes; settings: membranes of C6 cells expressing human alpha-2B; 2 nM [3H]RX 821002; 30 minutes at 25° C.; read-out: Affinity (pKi) Alpha-2B (converted)
T2 construct: expressed in transfected cells; host or cells: C6 cells (permanent expression), membranes
T2 sequence (P18089 1-450): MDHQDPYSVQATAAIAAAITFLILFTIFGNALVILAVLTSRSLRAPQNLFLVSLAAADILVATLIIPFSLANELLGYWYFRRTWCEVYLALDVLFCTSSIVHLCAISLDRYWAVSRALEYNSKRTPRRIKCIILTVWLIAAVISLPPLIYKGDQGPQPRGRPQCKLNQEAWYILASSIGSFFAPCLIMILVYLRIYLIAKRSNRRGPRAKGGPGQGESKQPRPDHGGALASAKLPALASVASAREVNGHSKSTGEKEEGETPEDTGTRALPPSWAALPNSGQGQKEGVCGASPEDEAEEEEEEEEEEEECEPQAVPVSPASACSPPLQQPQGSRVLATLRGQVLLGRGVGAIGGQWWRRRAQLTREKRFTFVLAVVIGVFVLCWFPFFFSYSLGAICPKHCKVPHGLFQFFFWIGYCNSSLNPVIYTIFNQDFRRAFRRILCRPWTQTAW
Experimental: (§1) Membranes of C6 cells permanently expressing either the human alpha-2A or alpha-2B receptor are prepared in Tris-HCl (pH=7.6). The binding tests are performed with 2 nM [^3H]RX 821002. The incubation medium is composed of 0.4 ml of cell membranes (10 μg of proteins), 0.05 ml of radioligand and 0.05 ml of test product or of phentolamine (10 μM) to determine the nonspecific binding. The reaction is quenched after incubation for 30 minutes at 25° C. by adding 3 ml of cold 50 mM Tris-HCl (pH=7.6), followed by filtration through Whatman GF/B filters using a Brandel. The Ki values are calculated according to the equation Ki=IC50/(1+C/Kd) in which C is the concentration and Kd the dissociation constant, pKi=−logKi. Under these conditions, it is seen that the compounds of the invention have high affinity for the receptors of the human adrenergic alpha-2A subtype, whereas they have little or no affinity for the receptors of the human adrenergic alpha-2B subtype (cf. above table). This unexpected receptor selectivity of the compounds of the invention, compared with the compounds of the prior art, may have a favorable impact on their tolerance.

human alpha-2A receptor = molecular target: T3, human alpha-2A receptor (Homo sapiens, UniProt P08913); test: Binding to the adrenergic alpha-2A receptor, [3H]RX 821002, C6 cell membranes; settings: membranes of C6 cells expressing human alpha-2A; 2 nM [3H]RX 821002; 30 minutes at 25° C.; read-out: Affinity (pKi) Alpha-2A (converted)
T3 construct: expressed in transfected cells; host or cells: C6 cells (permanent expression), membranes
T3 sequence (P08913 1-465): T1 sequence (P08913 1-465)
Experimental: as §1

Row | SMILES | melting point | Emax [2] | Ki (human alpha-2B receptor) | Ki (human alpha-2A receptor) | also measured
1 | COc1cc2c(cc1OC)C(=O)C(CC1CCN(Cc3ccccc3)CC1)C2 (stereo not drawn) [donepezil, reference compound] |  |  |  |  | Scopolamine-induced memory deficiency amplitude of the effect % ([1]; dose 0.16 mg/kg i.p.): +67 (0.16) %
2 | CNCC(O)c1ccc(O)c(O)c1 (single isomer, unassigned; (-)) [(−)-adrenalin, reference compound] |  | 100% |  |  | 
3 | COC1c2ccccc2C2CC21C1=NCCN1 (single isomer, unassigned; (+)) [(+) -XV-1, (+)-2-(6-Methoxy-1a,6-dihydro-1H-cyclopropa[a]inden-6a-yl)-4,5-dihydro-1H-imidazole] |  | -63% | > 10000 nM | 3.98 nM | 
4 | COC1c2ccccc2C2CC21C1=NCCN1 (single isomer, unassigned; (+)) (as salt: fumarate) [(+) -XV-1, (+)-2-(6-Methoxy-1a,6-dihydro-1H-cyclopropa[a]inden-6a-yl)-4,5-dihydro-1H-imidazole] | 170 to 172 °C |  |  |  | 
5 | c1ccc2c(c1)CC1(C3=NCCN3)CC21 (single isomer, unassigned; (-)) (as salt: hydrochloride) [(−)-XVII-1, (−)-2-(1a,6-Dihydro-1H-cyclopropa[a]inden-6a-yl)-4,5-dihydro-1H-imidazole] | 245 to 247 °C |  |  |  | 

Second part, led by results:

Row | melting point | Emax [2] | Ki (human alpha-2B receptor) | Ki (human alpha-2A receptor) | SMILES | also measured
6 | 133 to 135 °C |  |  |  | C[C@@H]1[C@H]2c3ccccc3C[C@@]12C1=NCCN1 (racemic) (as salt: fumarate) [XVII-2, 2-(1-exo-Methyl-1a,6-dihydro-1H-cyclopropa-[a]inden-6a-yl)-4,5-dihydro-1H-imidazole] | 
7 | 173 to 175 °C |  |  |  | CO[C@H]1c2ccccc2C2C[C@]21C1=NCCN1 (mixture of isomers) (as salt: fumarate) [XV-1, 2-(6-Methoxy-1a,6-dihydro-1H-cyclopropa[a]-inden-6a-yl)-4,5-dihydro-1H-imidazole] | 
8 |  | -2% | 316 nM | 12.6 nM | CO[C@H]1c2ccccc2C2C[C@]21C1=NCCN1 (mixture of isomers) [XV-1, 2-(6-Methoxy-1a,6-dihydro-1H-cyclopropa[a]-inden-6a-yl)-4,5-dihydro-1H-imidazole] | Scopolamine-induced memory deficiency amplitude of the effect % ([1]; dose 2.5 mg/kg i.p.): +168 (2.5) %
9 |  | -64% | 20 nM | 3.16 nM | C[C@@H]1[C@H]2c3ccccc3C[C@@]12C1=NCCN1 (racemic) [XVII-2, 2-(1-exo-Methyl-1a,6-dihydro-1H-cyclopropa-[a]inden-6a-yl)-4,5-dihydro-1H-imidazole] | Scopolamine-induced memory deficiency amplitude of the effect % ([1]; dose 0.63 mg/kg i.p.): +181 (0.63) %
10 | 177 to 179 °C |  |  |  | COc1cccc2c1C1C[C@@]1(C1=NCCN1)[C@H]2OC (stereo in doubt) (as salt: fumarate) [XV-1a, 2-(2,6-Dimethoxy-1a,6-dihydro-1H-cyclopropa[a]inden-6a-yl)-4,5-dihydro-1H-imidazole] | 
